Series [1] relates to HepG2. Kind of series: Modified MTT cytotoxicity assay, HepG2. Format: cell-based, Human. Particulars: for IC50: Homo sapiens, HepG2, 24 h, MTT, 24 h incubation, three replicates, read-out: Cytotoxicity IC50 HepG2; for SI (selectivity index) HepG2: quotient of IC50 for normal (LO2) and malignant (HepG2) cells. As for the experimental part: (§1) The HepG2, SMMC-7721, and LO2 cell lines were maintained at 37 °C, 5% humidified CO2, and 95% atmosphere. Dulbecco's Modified Eagle (DMEM) medium containing 10% foetal bovine serum (FBS) was used for culturing the HepG2 cell line; meanwhile, Roswell Park Memorial Institute (RPMI) 1640 medium containing 10% FBS was used for culturing other cell lines (SMMC-7721, LO2). The HepG2, SMMC-7721 and LO2 cells were seeded in a 96-well plate in 200 μL of medium per well at a density of approximately 8 × 10^3 cells/well and cultured for 24 h, followed by incubation in an incubator of indicated compounds with successive concentrations (10, 5, 2.5, 1.25, 0.625, 0.3125 μg/mL) for 24 h. In the control group, cells were only cultured with culture media. After the media were removed, 20 μL of MTT (5 mg/mL) was added, then cells were incubated for 4 h at 37 °C. […] GraphPad Prism 5 software was used to calculate their IC50 values. Every IC50 value was the average of three replicates. Doxorubicin (DOX) and curcumin were used as positive controls.
Background: Tetrazolium dyes change colour on reduction, which living cells bring about.

Series [2] concerns A549. Put plainly: Modified MTT cytotoxicity assay, A549. Particulars: for IC50: Homo sapiens, A549, read-out: Cytotoxicity IC50 A549, MTT, non-small cell lung cancer cell line; for SI (selectivity index) A549: quotient of IC50 for normal (HHL-5) and malignant (A549) cells.
Protocol: (§3) To further verify the anti-tumour activity, one human non-small cell lung cancer cell line (A549), one human ovarian cancer cell line (A2780), and one human normal heptical cell line (HHL-5) were screened by BAPs (4–30) using a modified MTT assay (Supporting Information). DOX and curcumin were selected as positive controls.
(§4) The optical density (OD) value of each well was measured on a
(§5) multi-well plate reader (TECAN, Mӓnnedorf, Switzerland ) at 570 nm.
(§6) Every IC 50 value was the average of three replicates.
(§7) Doxorubicin (DOX) and Curcumin were used as positive controls.
Series [3] deals with A2780. Kind of series: Modified MTT cytotoxicity assay, A2780. The settings on record: for IC50: Homo sapiens, A2780, read-out: Cytotoxicity IC50 A2780, MTT, ovarian cancer cell line; for SI (selectivity index) A2780: quotient of IC50 for normal (HHL-5) and malignant (A2780) cells.
Series [4] in a line: Modified MTT cytotoxicity assay, normal heptical cell line HHL-5. Particulars: human, HHL-5 cells (normal hepatic cell line).
Protocol: as §3, §4, §5, §6, §7
For series [5], the system named is SMMC-7721. Kind of series: Modified MTT cytotoxicity assay, SMMC-7721. Format: cell-based, Human. The settings on record: for IC50: Homo sapiens, SMMC-7721, 24 h, MTT, 24 h incubation, three replicates; for SI (selectivity index) SMMC-7721: quotient of IC50 for normal (LO2) and malignant (SMMC-7721) cells. How it is done:
as §1

In series [6] the test system is TNF-α. Kind of series: ELISA of TNF-α release in LPS-stimulated RAW264.7 cells. Format: cell-based, mouse. Particulars: Mus musculus, RAW264.7, ELISA, read-out: Inhibition rate TNF-α; for inhibition at 5 µM: RAW264.7, BAPs (5 μM) + LPS (1 μg/mL). As for the experimental part:
(§2) We tested by inhibiting the secretion of TNF-α and IL-6 to better evaluated the anti-inflammatory effects of BAPs. […] Under the stimulation of LPS (1.0 μg/mL) with RAW264.7 cells, the release of TNF-α and IL-6 was detected. Besides, after treated with BAPs (5.0 μM) and LPS (1.0 μg/mL), the release of TNF-α and IL-6 was measured with an ELISA kit (eBioScience, San Diego, California), respectively. In general terms, pyrrolidine dithiocarbamate (PDTC, 30 μM) or BAP (5.0 μM) was used to pretreat cells for 2 h, respectively. Then, LPS (1.0 μg/mL) was added and cells were incubated for another 22 h. Finally, the culture media were centrifuged at 1000 rpm for 10 min, and the expression levels of TNF-α and IL-6 were determined by ELISA.
Background: In an ELISA, binding on a coated surface is turned into a signal by an enzyme label.

Series [7] is described as follows: Modified MTT cytotoxicity assay, normal heptical cell line LO2. Particulars: human, LO2 cells (normal hepatic cell line), 24 h incubation. Format: cell-based, human. How it is done:
as §1

The test system of series [8] is IL-6. Kind of series: ELISA of IL-6 release in LPS-stimulated RAW264.7 cells. Format: cell-based, mouse. Particulars: Mus musculus, RAW264.7, ELISA, read-out: Inhibition rate IL-6; for inhibition at 5 µM: RAW264.7, BAPs (5 μM) + LPS (1 μg/mL). How it is done:
as §2

In series [9] the test system is RAW264.7 cell. Put plainly: MTT toxicity pre-experiment on RAW264.7 macrophagocyte. The settings on record: Mus musculus, RAW264.7, BAPs 5 μM, read-out: Survival rate RAW264.7 cell. Format: cell-based, mouse. How it is done:
Lipopolysaccharide (LPS) is a key constituent of Gram-negative bacterial endotoxin, which is used to induce an inflammatory response in corresponding inflammatory cells. TNF-α and IL-6 are two kinds of representative pro-inflammatory factors, which produced by LPS-stimulated RAW264.7 macrophage. In our pre-experiments, the toxicity against RAW264.7 macrophagocyte for all title compounds was tested by the MTT assay, and the results were listed in Table 2. The survival rates were above 80% for all BAPs (4-30) at the concentration of 5.0 μM.

The mark [10] stands for this setting: RAW264.7, PDTC 30 μM + LPS (1 μg/mL).

In the case of `O=C1/C(=C/c2cccc(C(F)(F)F)c2)CN(S(=O)(=O)c2ccc(Cl)cc2)C/C1=C\c1cccc(C(F)(F)F)c1` [BAP 18], the concentration for half-maximal inhibition (IC50) in [1] amounted to 5.2 ± 0.1 µM; in series [2], 0.15 ± 0.02 µM; in [3], 0.19 ± 0.02 µM; in series [4], 2.2 ± 0.1 µM; in series [5], 13.9 ± 0.1 µM. Also, the inhibition at 5 µM in series [6] amounted to 50.6 ± 3.2%; in series [8], 46.2 ± 2.1%. The same compound yielded an IC50 at 24 h in series [7] of 14.1 ± 0.1 µM. The viability at 5 µM in series [9] was determined as 85.7 ± 4.2%.

Regarding `O=C1/C(=C/c2ccccc2C(F)(F)F)CN(S(=O)(=O)c2ccc(F)cc2)C/C1=C\c1ccccc1C(F)(F)F` [BAP 8], the half-maximal inhibitory concentration (IC50) came out at 4 ± 0.2 µM in series [1]; 13.5 ± 1.39 µM in series [2]; 1.44 ± 0.54 µM in series [3]; 11.8 ± 0.2 µM in [4]; 8.3 ± 0.2 µM in series [5]. Moreover, the inhibition at 5 µM in series [6] is 46.8 ± 4.2%; in [8] it was 51.3 ± 3.3%. In [7], this compound returned an IC50 at 24 h of 13.8 ± 1.1 µM. In addition, the viability at 5 µM in series [9] was determined as 82.1 ± 1.9%.

`S=C(S)N1CCCC1` [PDTC, pyrrolidine dithiocarbamate, reference compound]: the inhibition at 30 µM is around 68.2% in series [6] (setting [10]) and around 59.1% in [8] (setting [10]).

In the case of `Cc1ccc(S(=O)(=O)N2C/C(=C\c3cccc(C(F)(F)F)c3)C(=O)/C(=C/c3cccc(C(F)(F)F)c3)C2)cc1` [BAP 14], the IC50 in [1] is 11.1 ± 0.2 µM; in series [2] it was 0.23 ± 0.04 µM; in series [3], 0.14 ± 0.03 µM; in series [4] it was 9.4 ± 0.2 µM; in [5] it was 5.6 ± 0.1 µM. Further, the inhibition at 5 µM turned out to be 60.2 ± 1.2% in series [6] and 66.3 ± 2% in series [8]. In series [7], inhibition was half-maximal at 15.9 ± 0.1 µM (IC50 at 24 h). In addition, the viability at 5 µM in series [9] amounted to 89.2 ± 1.8%.

Turning to `Cc1ccc(S(=O)(=O)N2C/C(=C\c3ccccc3C(F)(F)F)C(=O)/C(=C/c3ccccc3C(F)(F)F)C2)cc1` [BAP 5], the IC50 in [1] was determined as 17.5 ± 0.1 µM; in series [2] it was 14 ± 1.99 µM; in series [3], 4.85 ± 0.47 µM; in [4] it was 24.9 ± 0.1 µM; in [5] it was 19.7 ± 0.1 µM. Also, the inhibition at 5 µM in [6] was 46.2 ± 1%; in series [8], 49.6 ± 1.1%. In [7], the midpoint of inhibition, the IC50 at 24 h, lay at 36.2 ± 2.3 µM. For the same compound, the viability at 5 µM in series [9] is 93.3 ± 1.7%.

On to `N#Cc1ccc(S(=O)(=O)N2C/C(=C\c3ccccc3C(F)(F)F)C(=O)/C(=C/c3ccccc3C(F)(F)F)C2)cc1` [BAP 11], for which the 50% inhibitory concentration (IC50) in series [1] stood at 9 ± 0.2 µM; in series [2], 64.2 ± 10.2 µM; in [3] it was 32.3 ± 7.69 µM; in [4], 15.5 ± 0.3 µM; in series [5], 12 ± 0.2 µM. Moreover, the “SI (selectivity index) HepG2” value in series [1] is given as 1.4. The “SI (selectivity index) A549” value in series [2] worked out at 0.2. In addition, the “SI (selectivity index) A2780” value in series [3] is recorded as 0.5. Besides, the “SI (selectivity index) SMMC-7721” value in [5] was determined as 1.1. In addition, the inhibition at 5 µM in series [6] is 58.9 ± 3.2%; in [8] it was 59.1 ± 5.2%. This compound also showed a concentration for half-maximal inhibition (IC50) at 24 h in [7] of 13 ± 0.1 µM. The viability at 5 µM in series [9] amounted to 84.2 ± 2%.

Regarding `O=C1/C(=C/c2cccc(C(F)(F)F)c2)CN(S(=O)(=O)c2ccc(F)cc2)C/C1=C\c1cccc(C(F)(F)F)c1` [BAP 17], the IC50 in series [1] came out at 3.4 ± 0.2 µM; in series [2], 0.28 ± 0.01 µM; in [3], 0.14 ± 0.01 µM; in series [4], 3.5 ± 0.5 µM; in series [5] it was 4.8 ± 0.3 µM. In addition, the inhibition at 5 µM in series [6] amounted to 65.6 ± 1.2%; in series [8], 67.6 ± 2.2%. The compound further gave an IC50 at 24 h in [7] of 19.5 ± 0.1 µM. Also, the viability at 5 µM in [9] is 85.1 ± 2%.

In the case of `COc1cc(/C=C/C(=O)CC(=O)/C=C/c2ccc(O)c(OC)c2)ccc1O` [Curcumin, reference compound], in series [1], the concentration for half-maximal inhibition (IC50) was around 15.3 µM and the “SI (selectivity index) HepG2” value was determined as 1.9. For the same compound, in series [2], the IC50 amounted to 32 ± 3.55 µM and the “SI (selectivity index) A549” value was 0.8. In series [3], the half-inhibitory concentration (IC50) was 44 ± 9.82 µM and the “SI (selectivity index) A2780” value is given as 0.5. In series [4], this compound registered an IC50 of 24.2 ± 0.5 µM. In series [5], the IC50 is around 19.5 µM and the “SI (selectivity index) SMMC-7721” value was found to be 1.5. This compound also registered a 50% inhibitory concentration (IC50) at 24 h in series [7] of 29.1 ± 2.1 µM.

As a reminder, the IC50 is the concentration at which inhibition is half-maximal. A word on the inhibition: it is how much of the control response was suppressed.

The values are drawn from PMC8297402, “Trifluoromethyl-substituted 3,5-bis(arylidene)-4-piperidones as potential anti-hepatoma and anti-inflammation agents by inhibiting NF-кB activation” (Journal of Enzyme Inhibition and Medicinal Chemistry, 2021).
